# pIC50: −log10 of the molar value. Where two headings read alike, the source gives them in different places.
# Columns and labels:
# [1] = target: T1, NaV1.8 (Homo sapiens, UniProt Q9Y5Y9); assay: Activity against NaV1.8 channel (Table 3); type: cell-based
# Protocol: Compounds of the invention are useful as antagonists of voltage-gated sodium ion channels. Antagonist properties of test compounds were assessed as follows. Cells expressing the NaV of interest were placed into microtiter plates. After an incubation period, the cells were stained with fluorescent dyes sensitive to the transmembrane potential. The test compounds were added to the microtiter plate. The cells were stimulated with either a chemical or electrical means to evoke a NaV dependent membrane potential change from unblocked channels, which was detected and measured with trans-membrane potential-sensitive dyes. Antagonists were detected as a decreased membrane potential response to the stimulus. The optical membrane potential assay utilized voltage-sensitive FRET sensors described by Gonzalez and Tsien (See, Gonzalez, J. E. and R. Y. Tsien (1995) “Voltage sensing by fluorescence resonance energy transfer in single cells” Biophys J 69(4): 1272-80, and Gonzalez, J. E. and R. Y. Tsien (1997) “Improved indicators of cell membrane potential that use fluorescence resonance energy transfer” Chem Biol 4(4): 269-77) in combination with instrumentation for measuring fluorescence changes such as the Voltage/Ion Probe Reader (VIPR®) (See, Gonzalez, J. E., K. Oades, et al. (1999) “Cell-based assays and instrumentation for screening ion-channel targets” Drug Discov Today 4(9): 431-439).
# 24 hours before the assay on VIPR, CHO cells endogenously expressing a NaV1.2 type voltage-gated NaV are seeded in 96-well poly-lysine coated plates at 60,000 cells per well. Other subtypes are performed in an analogous mode in a cell line expressing the NaV of interest.
# The following is an example of how NaV1.3 inhibition activity is measured using the optical membrane potential method#2. Other subtypes are performed in an analogous mode in a cell line expressing the NaV of interest.
# Patch clamp electrophysiology was used to assess the efficacy and selectivity of sodium channel blockers in dorsal root ganglion neurons. Rat neurons were isolated from the dorsal root ganglions and maintained in culture for 2 to 10 days in the presence of NGF (50 ng/ml) (culture media consisted of NeurobasalA supplemented with B27, glutamine and antibiotics). Small diameter neurons (nociceptors, 8-12 μm in diameter) have been visually identified and probed with fine tip glass electrodes connected to an amplifier (Axon Instruments). The “voltage clamp” mode has been used to assess the compound's IC50 holding the cells at −60 mV. In addition, the “current clamp” mode has been employed to test the efficacy of the compounds in blocking action potential generation in response to current injections. The results of these experiments have contributed to the definition of the efficacy profile of the compounds.
# TTX-resistant sodium currents were recorded from DRG somata using the whole-cell variation of the patch clamp technique. Recordings were made at room temperature (˜22° C.) with thick walled borosilicate glass electrodes (WPI; resistance 3-4 MΩ) using an Axopatch 200B amplifier (Axon Instruments). After establishing the whole-cell configuration, approximately 15 minutes were allowed for the pipette solution to equilibrate within the cell before beginning recording. Currents were lowpass filtered between 2-5 kHz and digitally sampled at 10 kHz. Series resistance was compensated 60-70% and was monitored continuously throughout the experiment. The liquid junction potential (−7 mV) between the intracellular pipette solution and the external recording solution was not accounted for in the data analysis. Test solutions were applied to the cells with a gravity driven fast perfusion system (SF-77; Warner Instruments).
# Dose-response relationships were determined in voltage clamp mode by repeatedly depolarizing the cell from the experiment specific holding potential to a test potential of +10 mV once every 60 seconds. […]
# [2] = neuropathic pain, modest efficacy; cited from earlier work
# [3] = target: T1, NaV1.8; conditions: read-out: TTX IC50; cited from earlier work
# T1 sequence (Q9Y5Y9 whole entry, looked up): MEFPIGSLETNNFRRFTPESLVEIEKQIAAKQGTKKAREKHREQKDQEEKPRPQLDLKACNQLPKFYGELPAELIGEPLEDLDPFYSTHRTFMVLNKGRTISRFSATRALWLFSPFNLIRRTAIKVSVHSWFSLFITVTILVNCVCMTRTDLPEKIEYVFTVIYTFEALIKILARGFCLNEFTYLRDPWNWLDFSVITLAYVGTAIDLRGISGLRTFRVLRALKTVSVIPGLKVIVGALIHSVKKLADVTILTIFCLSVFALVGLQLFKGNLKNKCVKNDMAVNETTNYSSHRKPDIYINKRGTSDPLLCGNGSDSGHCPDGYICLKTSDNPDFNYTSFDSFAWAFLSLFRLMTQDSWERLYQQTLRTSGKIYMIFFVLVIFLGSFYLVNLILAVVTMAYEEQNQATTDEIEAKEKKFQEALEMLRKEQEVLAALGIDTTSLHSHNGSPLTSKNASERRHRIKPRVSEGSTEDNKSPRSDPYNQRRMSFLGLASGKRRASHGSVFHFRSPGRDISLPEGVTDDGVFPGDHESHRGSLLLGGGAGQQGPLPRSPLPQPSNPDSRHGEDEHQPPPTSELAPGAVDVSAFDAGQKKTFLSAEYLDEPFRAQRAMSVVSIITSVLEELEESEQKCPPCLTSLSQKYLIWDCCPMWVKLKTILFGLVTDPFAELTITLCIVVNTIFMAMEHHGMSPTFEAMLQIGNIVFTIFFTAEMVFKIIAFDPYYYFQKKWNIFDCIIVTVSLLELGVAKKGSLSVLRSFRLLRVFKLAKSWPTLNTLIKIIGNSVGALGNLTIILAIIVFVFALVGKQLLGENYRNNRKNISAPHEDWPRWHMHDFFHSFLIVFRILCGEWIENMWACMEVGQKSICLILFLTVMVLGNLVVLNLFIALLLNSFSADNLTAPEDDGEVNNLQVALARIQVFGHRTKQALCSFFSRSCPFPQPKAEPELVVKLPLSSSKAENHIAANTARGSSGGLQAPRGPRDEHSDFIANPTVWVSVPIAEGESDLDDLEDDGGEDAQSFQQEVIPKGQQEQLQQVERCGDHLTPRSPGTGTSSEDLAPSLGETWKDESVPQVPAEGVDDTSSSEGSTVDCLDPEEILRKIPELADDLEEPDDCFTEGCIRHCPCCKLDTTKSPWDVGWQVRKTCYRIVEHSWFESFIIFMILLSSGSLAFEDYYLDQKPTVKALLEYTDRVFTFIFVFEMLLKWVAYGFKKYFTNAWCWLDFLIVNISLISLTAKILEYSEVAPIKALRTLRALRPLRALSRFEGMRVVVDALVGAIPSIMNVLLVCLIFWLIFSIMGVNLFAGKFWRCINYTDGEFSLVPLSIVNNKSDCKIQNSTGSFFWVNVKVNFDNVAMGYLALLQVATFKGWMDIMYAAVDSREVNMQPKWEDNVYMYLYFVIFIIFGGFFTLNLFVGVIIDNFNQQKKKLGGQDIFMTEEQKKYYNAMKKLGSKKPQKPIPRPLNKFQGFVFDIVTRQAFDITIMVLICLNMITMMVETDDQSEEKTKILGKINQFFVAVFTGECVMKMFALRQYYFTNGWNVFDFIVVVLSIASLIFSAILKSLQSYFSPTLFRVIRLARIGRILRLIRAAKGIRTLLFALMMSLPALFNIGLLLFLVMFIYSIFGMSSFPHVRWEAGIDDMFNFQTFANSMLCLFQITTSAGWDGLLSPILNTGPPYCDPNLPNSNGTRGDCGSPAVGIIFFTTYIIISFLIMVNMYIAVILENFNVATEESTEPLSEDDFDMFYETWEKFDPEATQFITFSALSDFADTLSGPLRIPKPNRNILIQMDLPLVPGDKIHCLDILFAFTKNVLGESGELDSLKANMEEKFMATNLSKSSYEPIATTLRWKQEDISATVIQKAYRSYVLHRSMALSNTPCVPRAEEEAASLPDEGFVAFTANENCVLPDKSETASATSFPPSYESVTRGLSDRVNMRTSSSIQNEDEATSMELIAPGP
SMILES,pIC50 [1],further results
CC(C)OC(=O)N1CCN(c2nc(-c3ccccc3O)cs2)CC1 [Compound 6],< 4.70,–
"CC(C)COC(=O)N1CCN(c2nsc(-c3ccccc3O)n2)CC1 [Compound 17, Isobutyl 4-(5-(2-hydroxyphenyl)-1,2,4-thiadiazol-3-yl)piperazine-1-carboxylate]",< 4.70,–
O=C(O[C@H]1CCOC1)N1CCN(c2nc(-c3ccccc3O)cs2)CC1 [Compound 7],< 4.70,–
CC(C)[C@@H](O)C(=O)NCC1CCN(c2nc(-c3ccccc3O)ns2)CC1 [Compound 15],< 4.70,–
"CC(C)COC(=O)N1CCN(c2nc(-c3ccccc3F)cs2)CC1 [Compound 10, Isobutyl 4-(4-(2-fluorophenyl)thiazol-2-yl)piperazine-1-carboxylate]",< 4.70,–
CC(C)COC(=O)N1CCN(c2nc(-c3ccccc3O)cs2)CC1 [Compound 2],< 4.70,–
COCCOC(=O)N1CCN(c2nc(-c3ccccc3F)cs2)CC1 [Compound 13],< 4.70,–
COc1ccccc1-c1csc(N2CCN(C(=O)OC(C)(C)C)CC2)n1 [Compound 3],4.70 to 5.00,–
O=C([C@@H]1CCCO1)N1CCN(c2nc(-c3ccccc3O)cs2)CC1 [Compound 5],< 4.70,–
O=C(OC1CCOC1)N1CCN(c2nc(-c3ccccc3F)cs2)CC1 (stereo not shown) [Compound 12],< 4.70,–
NCC1(CC(=O)O)CCCCC1 [Gabapentin],–,patients in which it works [2]: 60%
"NC1=N[C@H](O)[C@H]2[C@H]3O[C@]4(O)O[C@@H]([C@@H](O)[C@@]2(N1)[C@@H]4O)[C@]3(O)CO [TTX, tetrodotoxin]",–,pIC50 [3]: < 4.30
CC(C)(C)COC(=O)N1CCN(c2nc(-c3ccccc3F)cs2)CC1 [Compound 11],< 4.70,–
"CC(C)COC(=O)NC1CCN(c2nc(-c3ccccc3O)ns2)CC1 [Compound 16, Isobutyl 1-(3-(2-hydroxyphenyl)-1,2,4-thiadiazol-5-yl)piperidin-4-ylcarbamate]",< 4.70,–
"O=C(OCc1ccccc1)N1CCN(c2nc(-c3ccccc3F)cs2)CC1 [Compound 9, Benzyl 4-(4-(2-fluorophenyl)thiazol-2-yl)piperazine-1-carboxylate]",< 4.70,–
O=C([C@H]1CCCO1)N1CCN(c2nc(-c3ccccc3F)cs2)CC1 [Compound 14],< 4.70,–
CCCCS(=O)(=O)N1CCN(c2nc(-c3ccccc3O)cs2)CC1 [Compound 4],< 4.70,–
Oc1ccccc1-c1csc(N2CCCCC2)n1 [Compound 1],4.70 to 5.00,–
COCCOC(=O)N1CCN(c2nc(-c3ccccc3O)cs2)CC1 [Compound 8],< 4.70,–
